The record followed here is ChEMBL document CHEMBL4334508, “Oleanolic Acid Derivatives as Potential Inhibitors of HIV-1 Protease” (J Nat Prod, 2019).

The structures appear in SMILES notation.

Sequence of Protease (Q9YQ12 whole entry): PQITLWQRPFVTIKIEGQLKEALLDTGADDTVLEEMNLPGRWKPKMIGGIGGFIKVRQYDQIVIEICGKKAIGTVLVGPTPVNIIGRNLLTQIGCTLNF

This assay addresses Protease (Human immunodeficiency virus 1, UniProt Q9YQ12). As to the kind of experiment: Inhibition of HIV1 protease expressed in Escherichia coli using Abz-Ala-Arg-Val-Nle-Tyr(NO2)-Glu-Ala-Nle-NH2 peptide as substrate by FRET assay.
`CCCC(=O)O[C@H]1CC[C@]2(C)[C@H]3CC=C4[C@@H]5CC(C)(C)CC[C@]5(C(=O)NCCCC(=O)N[C@@H](C)C(=O)O)CC[C@@]4(C)[C@]3(C)CC[C@H]2C1(C)C`: the IC50 was > 50 µM.

With `CC1(C)CC[C@]2(C(=O)NCCCCCC(=O)NCC(=O)O)CC[C@]3(C)C(=CC[C@@H]4[C@@]5(C)CC[C@H](OC(=O)c6ccccc6C(=O)O)C(C)(C)[C@@H]5CC[C@]43C)[C@@H]2C1`, half-maximal inhibition (IC50) was put at 3.1 µM. This lies in the single-digit micromolar range. As for `CC(=O)O[C@H]1CC[C@]2(C)[C@H]3CC=C4[C@@H]5CC(C)(C)CC[C@]5(C(=O)NCCCCCCCCCCC(=O)NCC(=O)O)CC[C@@]4(C)[C@]3(C)CC[C@H]2C1(C)C`, the IC50 was > 50 µM. Turning to `CCCCCC(=O)O[C@H]1CC[C@]2(C)[C@H]3CC=C4[C@@H]5CC(C)(C)CC[C@]5(C(=O)NCCCCCC(=O)O)CC[C@@]4(C)[C@]3(C)CC[C@H]2C1(C)C`, the concentration for half-maximal inhibition (IC50) was > 50 µM.

In turn, `CC(=O)N[C@H](C(=O)N[C@H](C(=O)N[C@@H](CC(C)C)[C@@H](O)CC(=O)N[C@@H](C)C(=O)N[C@@H](CC(C)C)[C@@H](O)CC(=O)O)C(C)C)C(C)C` [ACETYLPEPSTATIN] had an IC50 of 0.24 µM. On to `C[C@H](NC(=O)CCCCCNC(=O)[C@]12CCC(C)(C)C[C@H]1C1=CC[C@@H]3[C@@]4(C)CC[C@H](OC(=O)CC(C)(C)CC(=O)O)C(C)(C)[C@@H]4CC[C@@]3(C)[C@]1(C)CC2)C(=O)O`, for which the IC50 came to 24.1 µM. In the case of `CCCC(=O)O[C@H]1CC[C@]2(C)[C@H]3CC=C4[C@@H]5CC(C)(C)CC[C@]5(C(=O)NCCCCCCCCCCC(=O)O)CC[C@@]4(C)[C@]3(C)CC[C@H]2C1(C)C`, the IC50 was > 50 µM.

With `CCCCCCCCCCCC(=O)O[C@H]1CC[C@]2(C)[C@H]3CC=C4[C@@H]5CC(C)(C)CC[C@]5(C(=O)NCCCC(=O)NCC(=O)O)CC[C@@]4(C)[C@]3(C)CC[C@H]2C1(C)C`, the IC50 is > 50 µM. `CCCCCC(=O)O[C@H]1CC[C@]2(C)[C@H]3CC=C4[C@@H]5CC(C)(C)CC[C@]5(C(=O)NCCCCCCCCCCC(=O)NCC(=O)O)CC[C@@]4(C)[C@]3(C)CC[C@H]2C1(C)C`: the IC50 was > 50 µM. Under `CC1(C)CC[C@]2(C(=O)NCCCCCCCCCCC(=O)NCC(=O)O)CC[C@]3(C)C(=CC[C@@H]4[C@@]5(C)CC[C@H](OC(=O)c6ccccc6C(=O)O)C(C)(C)[C@@H]5CC[C@]43C)[C@@H]2C1` stands 2.3 µM. Turning to `C[C@H](NC(=O)CCCNC(=O)[C@]12CCC(C)(C)C[C@H]1C1=CC[C@@H]3[C@@]4(C)CC[C@H](OC(=O)CCC(=O)O)C(C)(C)[C@@H]4CC[C@@]3(C)[C@]1(C)CC2)C(=O)O`, the IC50 was > 50 µM. In the case of `CCCCCCCCCCCC(=O)O[C@H]1CC[C@]2(C)[C@H]3CC=C4[C@@H]5CC(C)(C)CC[C@]5(C(=O)NCCCCCC(=O)NCC(=O)O)CC[C@@]4(C)[C@]3(C)CC[C@H]2C1(C)C`, the IC50 was > 50 µM. With `CCCCCC(=O)O[C@H]1CC[C@]2(C)[C@H]3CC=C4[C@@H]5CC(C)(C)CC[C@]5(C(=O)NCCCC(=O)O)CC[C@@]4(C)[C@]3(C)CC[C@H]2C1(C)C` the figure was > 50 µM; with `C[C@H](NC(=O)CCCCCCCCCCNC(=O)[C@]12CCC(C)(C)C[C@H]1C1=CC[C@@H]3[C@@]4(C)CC[C@H](OC(=O)CCC(=O)O)C(C)(C)[C@@H]4CC[C@@]3(C)[C@]1(C)CC2)C(=O)O`, > 50 µM. Under `CC(=O)O[C@H]1CC[C@]2(C)[C@H]3CC=C4[C@@H]5CC(C)(C)CC[C@]5(C(=O)NCCCCCC(=O)N[C@H](C(=O)O)C(C)C)CC[C@@]4(C)[C@]3(C)CC[C@H]2C1(C)C` stands 30.3 µM; under `CC(=O)O[C@H]1CC[C@]2(C)[C@H]3CC=C4[C@@H]5CC(C)(C)CC[C@]5(C(=O)NCCCCCC(=O)NCC(=O)O)CC[C@@]4(C)[C@]3(C)CC[C@H]2C1(C)C`, > 50 µM. Under `CCCCCCCCCCCC(=O)O[C@H]1CC[C@]2(C)[C@H]3CC=C4[C@@H]5CC(C)(C)CC[C@]5(C(=O)NCCCCCC(=O)N[C@H](C(=O)O)C(C)C)CC[C@@]4(C)[C@]3(C)CC[C@H]2C1(C)C` stands > 50 µM. Take `CCCCCCCCCCCC(=O)O[C@H]1CC[C@]2(C)[C@H]3CC=C4[C@@H]5CC(C)(C)CC[C@]5(C(=O)NCCCCCCCCCCC(=O)N[C@H](C(=O)O)C(C)C)CC[C@@]4(C)[C@]3(C)CC[C@H]2C1(C)C`: the IC50 is > 50 µM. `CCCCCCCCCCCC(=O)O[C@H]1CC[C@]2(C)[C@H]3CC=C4[C@@H]5CC(C)(C)CC[C@]5(C(=O)NCCCC(=O)N[C@H](C(=O)O)C(C)C)CC[C@@]4(C)[C@]3(C)CC[C@H]2C1(C)C`: the IC50 was > 50 µM.

Consider `CC1(C)CC[C@]2(C(=O)NCCCCCC(=O)O)CC[C@]3(C)C(=CC[C@@H]4[C@@]5(C)CC[C@H](OC(=O)c6ccccc6)C(C)(C)[C@@H]5CC[C@]43C)[C@@H]2C1`, for which the IC50 was > 50 µM. Compound `CC(C)(CC(=O)O)CC(=O)O[C@H]1CC[C@]2(C)[C@H]3CC=C4[C@@H]5CC(C)(C)CC[C@]5(C(=O)NCCCCCC(=O)O)CC[C@@]4(C)[C@]3(C)CC[C@H]2C1(C)C` registered an IC50 of 12.4 µM. With `CC(=O)O[C@H]1CC[C@]2(C)[C@H]3CC=C4[C@@H]5CC(C)(C)CC[C@]5(C(=O)NCCCC(=O)NCC(=O)O)CC[C@@]4(C)[C@]3(C)CC[C@H]2C1(C)C`, the half-maximal inhibitory concentration (IC50) is > 50 µM. With `CCC(=O)O[C@H]1CC[C@]2(C)[C@H]3CC=C4[C@@H]5CC(C)(C)CC[C@]5(C(=O)NCCCCCCCCCCC(=O)NCC(=O)O)CC[C@@]4(C)[C@]3(C)CC[C@H]2C1(C)C`, the IC50 was > 50 µM.

As for `CCCC(=O)O[C@H]1CC[C@]2(C)[C@H]3CC=C4[C@@H]5CC(C)(C)CC[C@]5(C(=O)NCCCC(=O)N[C@H](C(=O)O)C(C)C)CC[C@@]4(C)[C@]3(C)CC[C@H]2C1(C)C`, the IC50 was > 50 µM. On to `CC1(C)CC[C@]2(C(=O)NCCCCCCCCCCC(=O)NCC(=O)O)CC[C@]3(C)C(=CC[C@@H]4[C@@]5(C)CC[C@H](OC(=O)CCC(=O)O)C(C)(C)[C@@H]5CC[C@]43C)[C@@H]2C1`, for which the IC50 was > 50 µM. Take `C[C@H](NC(=O)CCCNC(=O)[C@]12CCC(C)(C)C[C@H]1C1=CC[C@@H]3[C@@]4(C)CC[C@H](OC(=O)c5ccccc5)C(C)(C)[C@@H]4CC[C@@]3(C)[C@]1(C)CC2)C(=O)O`: the half-maximal inhibitory concentration (IC50) came out at 47.1 µM. Consider `CCCCCC(=O)O[C@H]1CC[C@]2(C)[C@H]3CC=C4[C@@H]5CC(C)(C)CC[C@]5(C(=O)NCCCCCCCCCCC(=O)O)CC[C@@]4(C)[C@]3(C)CC[C@H]2C1(C)C`, for which the IC50 was > 50 µM. Take `CC1(C)CC[C@]2(C(=O)NCCCCCC(=O)O)CC[C@]3(C)C(=CC[C@@H]4[C@@]5(C)CC[C@H](OC(=O)CCCC(=O)O)C(C)(C)[C@@H]5CC[C@]43C)[C@@H]2C1`: the IC50 is 1 µM. Turning to `CC(=O)O[C@H]1CC[C@]2(C)[C@H]3CC=C4[C@@H]5CC(C)(C)CC[C@]5(C(=O)NCCCC(=O)N[C@H](C(=O)O)C(C)C)CC[C@@]4(C)[C@]3(C)CC[C@H]2C1(C)C`, the 50% inhibitory concentration (IC50) was > 50 µM.

On to `CC(C)[C@H](NC(=O)CCCNC(=O)[C@]12CCC(C)(C)C[C@H]1C1=CC[C@@H]3[C@@]4(C)CC[C@H](OC(=O)c5ccccc5)C(C)(C)[C@@H]4CC[C@@]3(C)[C@]1(C)CC2)C(=O)O`, for which the 50% inhibitory concentration (IC50) was > 50 µM. On to `CCC(=O)O[C@H]1CC[C@]2(C)[C@H]3CC=C4[C@@H]5CC(C)(C)CC[C@]5(C(=O)NCCCCCC(=O)N[C@@H](C)C(=O)O)CC[C@@]4(C)[C@]3(C)CC[C@H]2C1(C)C`, for which it took 31 µM to reach half-maximal inhibition (IC50). Take `CCC(=O)O[C@H]1CC[C@]2(C)[C@H]3CC=C4[C@@H]5CC(C)(C)CC[C@]5(C(=O)NCCCC(=O)N[C@@H](C)C(=O)O)CC[C@@]4(C)[C@]3(C)CC[C@H]2C1(C)C`: the IC50 was > 50 µM. For the compound `CC(=O)O[C@H]1CC[C@]2(C)[C@H]3CC=C4[C@@H]5CC(C)(C)CC[C@]5(C(=O)NCCCCCC(=O)O)CC[C@@]4(C)[C@]3(C)CC[C@H]2C1(C)C`, the IC50 was > 50 µM.

With `CCCCCCCCCCCC(=O)O[C@H]1CC[C@]2(C)[C@H]3CC=C4[C@@H]5CC(C)(C)CC[C@]5(C(=O)NCCCCCCCCCCC(=O)NCC(=O)O)CC[C@@]4(C)[C@]3(C)CC[C@H]2C1(C)C`, the IC50 was > 50 µM. As for `CC1(C)CC[C@]2(C(=O)NCCCCCCCCCCC(=O)O)CC[C@]3(C)C(=CC[C@@H]4[C@@]5(C)CC[C@H](OC(=O)c6ccccc6)C(C)(C)[C@@H]5CC[C@]43C)[C@@H]2C1`, the IC50 was > 50 µM. Under `CCCCCC(=O)O[C@H]1CC[C@]2(C)[C@H]3CC=C4[C@@H]5CC(C)(C)CC[C@]5(C(=O)NCCCCCC(=O)NCC(=O)O)CC[C@@]4(C)[C@]3(C)CC[C@H]2C1(C)C` stands > 50 µM.
